Non-standard residues stand in square brackets, D forms with d. Residues, ends and D or L forms follow the SMILES beside them. *: point of attachment. Ala(7-MeO-coumarin-4-yl) = COc1ccc2c(C[C@H](N)C(=O)O)cc(=O)oc2c1; X1 = N[C@@H](Cc1ccc(O)cc1)C(=S)N1CCC[C@H]1C(=O)*

In the first data set the target is T1, DPP-4 (Homo sapiens, UniProt P27487).
T1 construct: purchased Sigma Aldrich D3446
T1 sequence (P27487 whole entry): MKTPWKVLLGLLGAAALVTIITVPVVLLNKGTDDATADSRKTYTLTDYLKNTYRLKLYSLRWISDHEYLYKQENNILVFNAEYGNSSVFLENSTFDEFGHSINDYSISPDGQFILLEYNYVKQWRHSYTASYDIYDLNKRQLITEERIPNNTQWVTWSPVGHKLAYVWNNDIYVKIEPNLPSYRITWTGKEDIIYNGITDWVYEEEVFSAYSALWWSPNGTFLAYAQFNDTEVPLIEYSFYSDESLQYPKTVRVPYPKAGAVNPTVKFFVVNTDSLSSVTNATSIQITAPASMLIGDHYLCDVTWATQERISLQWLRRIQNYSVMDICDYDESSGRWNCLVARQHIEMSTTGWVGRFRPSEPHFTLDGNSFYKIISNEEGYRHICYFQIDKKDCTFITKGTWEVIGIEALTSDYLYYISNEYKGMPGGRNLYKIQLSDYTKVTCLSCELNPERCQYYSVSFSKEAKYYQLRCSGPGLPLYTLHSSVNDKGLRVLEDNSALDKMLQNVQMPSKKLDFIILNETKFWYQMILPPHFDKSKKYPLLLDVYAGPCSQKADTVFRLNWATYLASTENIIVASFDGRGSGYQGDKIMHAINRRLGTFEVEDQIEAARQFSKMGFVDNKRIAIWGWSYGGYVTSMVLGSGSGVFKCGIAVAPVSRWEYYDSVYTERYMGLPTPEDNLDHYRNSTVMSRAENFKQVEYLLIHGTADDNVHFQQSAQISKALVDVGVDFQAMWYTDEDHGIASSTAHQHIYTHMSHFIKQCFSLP
Description: DPP-4 proteolysis steady state fluorescence assay with μ-tagged probes. Format: in vitro ADME. The note with it: 5 μM peptide, 2.31 ng/μL DPP-4, DPBS pH 7.6, 27 °C, fluorescence λex 325 nm / λem 390 nm, average of three replicates. How it is done: Phan et al. Supporting Information
4. DPP-4 Proteolysis Assays (Steady State Assays)
A 19 μL solution of 5.3 μM peptide was incubated in the absence or presence of 1 μL of 46.2 ng/μL DPP-4 (Sigma Aldrich, D3446), to final concentrations of 5 μM peptide and 2.31 ng/μL […]
For the PP-based probes (APLEPμ & ASPLEPμ), […]
additional assays were conducted at higher DPP-4 concentration of 4.62 ng/μL to improve the cleavage rate and kinetics of the thioamide probes (Figure S17B). For the μ-tagged probes, the […]
nm on the Tecan M1000 plate reader. Three replicates were performed for each assay to ensure reproducibility. These primary data are shown. At the end of the plate-reader assay, the sample was diluted to a final volume of 170 μL for validation with HPLC. MALDI MS & HPLC analysis of peptide proteolysis by DPP-4 were also done to confirm the cleavage sites, indicated by the slashes (e.g. YP/SKPµ) as summarized in Figures S14-S17, and Tables S4-S7. A Phenomenex Luna® Omega 5 µm PS C18 100 Å analytical HPLC column was used to analyze all samples using the same gradient of 20-25 % B over 35 minutes (Solvent A: 0.1% TFA in Milli-Q water; Solvent B: 0.1% TFA in acetonitrile).
In the case of `COc1ccc2c(C[C@H](NC(=O)[C@@H]3CCCN3C(=O)[C@H](CCCCN)NC(=O)[C@H](CO)NC(=O)[C@@H]3CCCN3C(=S)[C@@H](N)Cc3ccc(O)cc3)C(=O)O)cc(=O)oc2c1` [Y^sPSKPμ] (X1-SKP[Ala(7-MeO-coumarin-4-yl)]-OH), the “t1/2 of cleavage by DPP-4 (μ-labeled probe)” value was 26 min.

The same data set, now with this note: 5 μM peptide, 2.31 ng/μL DPP-4, DPBS pH 7.6, 27 °C, fluorescence λex 325 nm / λem 390 nm, three replicates.
`CC[C@H](C)[C@H](NC(=O)[C@@H]1CCCN1C(=S)[C@@H](N)Cc1ccc(O)cc1)C(=O)N[C@@H](CCCCN)C(=O)N1CCC[C@H]1C(=O)N[C@@H](Cc1cc(=O)oc2cc(OC)ccc12)C(=O)O` [Y^SPIKPμ] (X1-IKP[Ala(7-MeO-coumarin-4-yl)]-OH): the “cleaved fold slower than the native NPY1–5 probe Y^SPSKPμ” value was 3 fold.

`COc1ccc2c(C[C@H](NC(=O)[C@@H]3CCCN3C(=O)[C@H](CCCCN)NC(=O)[C@H](CC(C)C)NC(=O)[C@@H]3CCCN3C(=S)[C@@H](N)Cc3ccc(O)cc3)C(=O)O)cc(=O)oc2c1` [Y^SPLKPμ] (X1-LKP[Ala(7-MeO-coumarin-4-yl)]-OH): the “cleaved fold slower than the native NPY1–5 probe Y^SPSKPμ” value amounted to 2 fold.

The next data set relates to DPP-4 (dipeptidyl Peptidase IV human, recombinant, expressed in Sf9 cells). Description: 2.31 ng/μL DPP-4 in DPBS buffer and pH 7.6 (PP-based probes also 4.62 ng/μL). The note with it: 27°C, up to 400 min.
Consider APLEPμ, for which the cleaved bond entry is “P-L”.

Consider A^SPLEPμ, for which the cleaved bond entry is listed as “P-L”.

As for YPIKPμ, the cleaved bond result is “P-I”.

As for YPLKPμ, the cleaved bond result is listed as “P-L3”.

In the case of YPSKPμ, the cleaved bond entry is “P-S”.

Take Y^SPIKPμ: the cleaved bond result is “P-I”.

As for Y^SPLKPμ, the cleaved bond result is recorded as “P-L3”.

Turning to Y^SPSKPμ, the cleaved bond result was “P-S”.

These data come from publication PMC11497070 (Chemical Communications (Cambridge, England), 2024).
